According to ChEMBL document CHEMBL1909046, “DrugMatrix in vitro pharmacology data”:

Experiments:
[1] = target: T1, Alpha-1A adrenergic receptor (Rattus norvegicus, UniProt P43140); assay: DRUGMATRIX: Alpha-1A adrenergic receptor radioligand binding (ligand: prazosin); type: cell membranes, Wistar, Submaxillary gland, Membrane; conditions: Not Active = under 50% inhibition at 10 µM
T1 sequence (P43140 whole entry): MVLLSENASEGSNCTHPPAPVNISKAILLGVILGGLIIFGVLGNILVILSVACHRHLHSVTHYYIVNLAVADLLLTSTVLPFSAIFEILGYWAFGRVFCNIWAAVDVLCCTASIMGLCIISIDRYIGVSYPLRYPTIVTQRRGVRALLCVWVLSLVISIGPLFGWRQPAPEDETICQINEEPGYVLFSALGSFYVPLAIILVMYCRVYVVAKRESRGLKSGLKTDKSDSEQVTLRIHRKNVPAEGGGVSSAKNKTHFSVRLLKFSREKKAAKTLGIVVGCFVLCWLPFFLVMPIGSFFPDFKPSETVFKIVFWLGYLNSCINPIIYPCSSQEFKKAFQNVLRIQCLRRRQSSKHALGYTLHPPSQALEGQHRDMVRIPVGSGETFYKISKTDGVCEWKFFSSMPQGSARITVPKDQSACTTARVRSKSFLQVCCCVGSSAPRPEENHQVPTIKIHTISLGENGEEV

[2] = target: Sodium-dependent dopamine transporter (Homo sapiens, UniProt Q01959); assay: DRUGMATRIX: Dopamine Transporter radioligand binding (ligand: [125I] RTI-55); type: cell membranes, CHO-K1, Membrane; conditions: Not Active = under 50% inhibition at 10 µM
Endothelin-1 receptor = target: T2, Endothelin-1 receptor (Homo sapiens, UniProt P25101); type: cell membranes, CHO-K1, Membrane; conditions: cho-k1; also: in other assays of this panel Not Active means under 50% inhibition at 10 µM
T2 sequence (P25101 whole entry): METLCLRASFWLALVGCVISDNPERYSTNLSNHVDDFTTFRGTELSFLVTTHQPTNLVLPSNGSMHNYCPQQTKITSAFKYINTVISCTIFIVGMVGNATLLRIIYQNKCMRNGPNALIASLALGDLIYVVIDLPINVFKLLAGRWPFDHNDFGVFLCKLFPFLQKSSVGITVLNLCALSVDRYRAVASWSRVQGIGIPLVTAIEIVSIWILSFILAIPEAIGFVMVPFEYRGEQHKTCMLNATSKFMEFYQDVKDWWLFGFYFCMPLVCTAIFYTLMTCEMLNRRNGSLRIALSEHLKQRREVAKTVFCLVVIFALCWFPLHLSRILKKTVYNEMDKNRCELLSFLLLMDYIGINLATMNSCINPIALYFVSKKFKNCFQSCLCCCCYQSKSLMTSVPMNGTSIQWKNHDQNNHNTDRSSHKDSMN

[3] = DRUGMATRIX: Atrial Natriuretic Factor (ANF) radioligand binding (ligand: [125I] ANF (rat)); type: cell membranes, Cavia porcellus, Dunkin-Hartley, Adrenal gland, Membrane; conditions: Not Active = under 50% inhibition at 10 µM
[4] = DRUGMATRIX: Phosphodiesterase PDE4 enzyme inhibition (substrate: [3H]cAMP + cAMP); conditions: u-937; Not Active = under 50% inhibition at 10 µM
Cytochrome P450 3A4 = Cytochrome P450 3A4 (Homo sapiens, UniProt P08684); conditions: bti-tn-5b1-4; also: in other assays of this panel Not Active means under 50% inhibition at 10 µM
Cytochrome P450 3A4, sequence (P08684 whole entry): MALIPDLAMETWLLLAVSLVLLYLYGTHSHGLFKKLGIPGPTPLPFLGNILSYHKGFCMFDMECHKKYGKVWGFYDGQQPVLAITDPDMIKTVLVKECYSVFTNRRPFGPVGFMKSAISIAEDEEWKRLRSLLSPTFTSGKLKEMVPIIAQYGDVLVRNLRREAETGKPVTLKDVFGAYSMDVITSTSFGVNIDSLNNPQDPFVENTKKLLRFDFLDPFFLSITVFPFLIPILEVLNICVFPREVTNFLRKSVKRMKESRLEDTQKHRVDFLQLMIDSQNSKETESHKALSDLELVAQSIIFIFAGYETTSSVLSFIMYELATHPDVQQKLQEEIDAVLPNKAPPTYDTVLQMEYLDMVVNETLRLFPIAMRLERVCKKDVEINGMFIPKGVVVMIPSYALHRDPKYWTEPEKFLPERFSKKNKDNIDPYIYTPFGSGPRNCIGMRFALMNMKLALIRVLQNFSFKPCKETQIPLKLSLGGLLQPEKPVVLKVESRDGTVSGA

Sodium-dependent dopamine transporter, sequence (Q01959 whole entry): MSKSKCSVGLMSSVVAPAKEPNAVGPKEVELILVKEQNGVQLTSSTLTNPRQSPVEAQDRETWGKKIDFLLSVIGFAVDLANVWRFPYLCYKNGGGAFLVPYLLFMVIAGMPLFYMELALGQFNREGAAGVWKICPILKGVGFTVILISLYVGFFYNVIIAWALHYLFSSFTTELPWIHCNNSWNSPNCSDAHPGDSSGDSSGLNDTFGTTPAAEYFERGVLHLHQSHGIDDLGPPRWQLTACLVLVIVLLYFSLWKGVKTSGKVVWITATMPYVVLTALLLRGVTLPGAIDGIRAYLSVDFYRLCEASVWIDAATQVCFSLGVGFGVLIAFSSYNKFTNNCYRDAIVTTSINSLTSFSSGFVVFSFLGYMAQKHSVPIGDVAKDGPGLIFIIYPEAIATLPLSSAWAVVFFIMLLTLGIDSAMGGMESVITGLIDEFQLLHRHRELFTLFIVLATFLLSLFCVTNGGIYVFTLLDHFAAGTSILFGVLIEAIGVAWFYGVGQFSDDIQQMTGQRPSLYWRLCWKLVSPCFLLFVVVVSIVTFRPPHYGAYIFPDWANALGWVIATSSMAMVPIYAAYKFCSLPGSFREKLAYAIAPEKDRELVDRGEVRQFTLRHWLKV

N[C@@H](Cc1cc(I)c(Oc2ccc(O)c(I)c2)c(I)c1)C(=O)O [LIOTHYRONINE]
Not Active: IC50 [1] | IC50 ([2]; cho-k1) | IC50 (Endothelin-1 receptor)

c1ccc([C@H]2CN3CCSC3=N2)cc1 [LEVAMISOLE]
Not Active: IC50 [1] | IC50 [3] | Ki [3] | IC50 ([2]; cho-k1) | IC50 (Endothelin-1 receptor) | IC50 [4] | Ki [4] | IC50 (Cytochrome P450 3A4) | Ki (Cytochrome P450 3A4)

CC1(C)O[C@@H]2C[C@H]3[C@@H]4CCC5=CC(=O)C=C[C@]5(C)[C@@]4(F)[C@@H](O)C[C@]3(C)[C@]2(C(=O)CO)O1 [TRIAMCINOLONE ACETONIDE]
Not Active: IC50 [1] | IC50 [3] | Ki [3] | IC50 ([2]; cho-k1) | IC50 (Endothelin-1 receptor) | IC50 [4] | Ki [4] | IC50 (Cytochrome P450 3A4) | Ki (Cytochrome P450 3A4)

N#CC(C#N)=Cc1ccc(O)c(O)c1 [TYRPHOSTIN 23]
Not Active: IC50 [1] | IC50 [3] | Ki [3] | IC50 ([2]; cho-k1) | IC50 (Endothelin-1 receptor) | IC50 [4] | Ki [4] | IC50 (Cytochrome P450 3A4) | Ki (Cytochrome P450 3A4)

Nc1nc2nc[nH]c2c(=S)[nH]1 [THIOGUANINE]
Not Active: IC50 [1] | IC50 [3] | Ki [3] | IC50 ([2]; cho-k1) | IC50 (Endothelin-1 receptor) | IC50 [4] | Ki [4] | IC50 (Cytochrome P450 3A4) | Ki (Cytochrome P450 3A4)

NS(=O)(=O)c1cc2c(cc1Cl)NC(C(Cl)Cl)NS2(=O)=O (configuration not stated) [TRICHLORMETHIAZIDE]
Not Active: IC50 [1] | IC50 [3] | Ki [3] | IC50 ([2]; cho-k1) | IC50 (Endothelin-1 receptor) | IC50 [4] | Ki [4] | IC50 (Cytochrome P450 3A4) | Ki (Cytochrome P450 3A4)

CC(C)N1CCN(c2ccc(OCC3COC(Cn4cncn4)(c4ccc(Cl)cc4Cl)O3)cc2)CC1 (configuration not stated) [TERCONAZOLE]
13.3 µM: IC50 ([1]; read-out: IC50)
5.37 µM: Ki ([1]; read-out: Ki)
Not Active: IC50 (Endothelin-1 receptor) | IC50 [4] | Ki [4] | IC50 (Cytochrome P450 3A4) | Ki (Cytochrome P450 3A4)

CN1CCN(CCCN2c3ccccc3Sc3ccc(Cl)cc32)CC1 [PROCHLORPERAZINE]
Not Active: IC50 (Endothelin-1 receptor) | IC50 (Cytochrome P450 3A4) | Ki (Cytochrome P450 3A4)
0.013 µM: Ki ([1]; read-out: Ki)
0.032 µM: IC50 ([1]; read-out: IC50)

CC(C)(C)NC(=O)[C@@H]1C[C@@H]2CCCC[C@@H]2CN1C[C@@H](O)[C@H](Cc1ccccc1)NC(=O)[C@H](CC(N)=O)NC(=O)c1ccc2ccccc2n1
27.9 µM: Ki ([2]; read-out: Ki)
35.1 µM: IC50 ([2]; read-out: IC50)
Not Active: IC50 [1] | IC50 [3] | Ki [3] | IC50 (Endothelin-1 receptor) | IC50 [4] | Ki [4] | IC50 (Cytochrome P450 3A4) | Ki (Cytochrome P450 3A4)

SODIUM NITROPRUSSIDE
Not Active: IC50 [1] | Ki [1] | IC50 [3] | Ki [3] | IC50 ([2]; cho-k1) | Ki ([2]; cho-k1) | IC50 (Endothelin-1 receptor) | Ki (Endothelin-1 receptor) | IC50 [4] | Ki [4] | IC50 (Cytochrome P450 3A4) | Ki (Cytochrome P450 3A4)

NC[C@H]1CC[C@H](C(=O)O)CC1 [TRANEXAMIC ACID]
Not Active: IC50 [1] | IC50 [3] | Ki [3] | IC50 ([2]; cho-k1) | IC50 (Endothelin-1 receptor) | IC50 [4] | Ki [4] | IC50 (Cytochrome P450 3A4) | Ki (Cytochrome P450 3A4)

CC/C(=C(\c1ccccc1)c1ccc(OCCN(C)C)cc1)c1ccccc1 [TAMOXIFEN]
1.46 µM: Ki ([2]; read-out: Ki)
8.92 µM: Ki ([1]; read-out: Ki)
1.84 µM: IC50 ([2]; read-out: IC50)
22.1 µM: IC50 ([1]; read-out: IC50)
Not Active: IC50 (Endothelin-1 receptor) | IC50 (Cytochrome P450 3A4) | Ki (Cytochrome P450 3A4)

N[C@@H]1[C@H]2CN(c3nc4c(cc3F)c(=O)c(C(=O)O)cn4-c3ccc(F)cc3F)C[C@@H]12 [TROVAFLOXACIN]
49.4 µM: Ki ([2]; read-out: Ki)
Not Active: IC50 [1] | IC50 [3] | Ki [3] | IC50 (Endothelin-1 receptor) | IC50 [4] | Ki [4] | IC50 (Cytochrome P450 3A4) | Ki (Cytochrome P450 3A4)
62.2 µM: IC50 ([2]; read-out: IC50)

Nc1nc2ccc(OC(F)(F)F)cc2s1 [RILUZOLE]
Not Active: IC50 [1] | IC50 [3] | Ki [3] | IC50 ([2]; cho-k1) | IC50 (Endothelin-1 receptor) | IC50 [4] | Ki [4]

Cc1nc2n(c(=O)c1CCN1CCC(c3noc4cc(F)ccc34)CC1)CCCC2 [RISPERIDONE]
Not Active: IC50 ([2]; cho-k1) | IC50 (Endothelin-1 receptor)
